Data set [1] deals with T1, Creatine transporter (CRT) (Homo sapiens, UniProt P48029).
T1 sequence (P48029 1-635): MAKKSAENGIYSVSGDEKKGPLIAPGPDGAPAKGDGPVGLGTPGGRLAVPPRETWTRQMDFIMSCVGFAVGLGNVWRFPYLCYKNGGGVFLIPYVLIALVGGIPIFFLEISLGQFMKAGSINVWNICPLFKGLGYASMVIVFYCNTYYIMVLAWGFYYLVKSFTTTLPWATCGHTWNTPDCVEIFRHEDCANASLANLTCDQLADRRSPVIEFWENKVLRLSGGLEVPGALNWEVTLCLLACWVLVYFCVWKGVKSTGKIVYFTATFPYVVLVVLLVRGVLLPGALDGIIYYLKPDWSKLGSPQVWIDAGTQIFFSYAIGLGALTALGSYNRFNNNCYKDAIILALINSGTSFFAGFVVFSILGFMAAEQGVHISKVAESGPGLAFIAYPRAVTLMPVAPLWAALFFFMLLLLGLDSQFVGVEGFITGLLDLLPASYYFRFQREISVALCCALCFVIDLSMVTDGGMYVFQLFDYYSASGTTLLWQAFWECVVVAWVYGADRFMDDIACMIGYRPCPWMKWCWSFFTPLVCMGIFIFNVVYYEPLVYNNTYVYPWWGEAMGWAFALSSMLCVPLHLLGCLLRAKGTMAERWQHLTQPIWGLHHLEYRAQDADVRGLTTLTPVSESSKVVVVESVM
Briefly: [14C]cyclocreatine / [14C]creatine uptake by HEK293 cells. In kind it is cell-based. Further details: endogenous in cells; host or cells: HEK293 cells. Conditions: for inhibition of uptake by CRT-targeting siRNA: CRT protein expression reduced by 42%, substrate 9 µM. Here is the method: (§1) Methods: Cells were incubated with [14C]cyclocreatine (9 µM) and [14C]creatine (9 µM) for the indicated times at 37 °C in the presence or absence of several compounds. siRNAs were transfected by lipofection. Protein and mRNA expressions were quantified by LC–MS/MS and qPCR, respectively.

Data set [2] addresses T1, Creatine transporter (CRT). Kind of data set: [14C]cyclocreatine / [14C]creatine uptake by hCMEC/D3 cells. In kind it is cell-based. More on the design: hCMEC/D3 cells, which are immortalized human brain microvascular endothelial cells; endogenous in cells; host or cells: hCMEC/D3 cells. Conditions: for suppression of [14C]cyclocreatine uptake: [14C]cyclocreatine 9 µM, 37 °C; for inhibition of uptake by CRT-targeting siRNA: CRT mRNA expression reduced by 97%, substrate 9 µM. Here is the method: as §1

Data set [3] concerns Rat primary brain endothelial, pericyte and astroglial cell cultures. Briefly: Kainate damage and drug protection in BBB culture model. The source says:
In animal models of epilepsy induced by kainic acid, the primary ligand of ionotropic kainate receptors, BBB damage occurs, but the effect of kainate on brain endothelial cells has not been studied. Our aim was to examine the presence of kainate receptors and the effects of kainate on cultured cells of the BBB and to test anti-inflammatory and antioxidant drugs to protect against kainate-induced changes. Rat primary brain endothelial, pericyte and astroglial cell cultures were used to study cell viability by impedance measurement and cell morphology. BBB permeability was measured on a model made from the three cell types. The production of nitrogen monoxide and reactive oxygen species was followed by fluorescent probes. Four drugs were tested to protect against kainate-induced changes. The mRNA expression of kainate receptors and nitric oxide synthases (NOS) were studied by RT-PCR.

Another data set relates to transgenic hAPP mice. Kind of data set: PCN or NAC purified diet in transgenic hAPP mice. In kind it is in vivo. The source says: Methods: To test our hypothesis, transgenic hAPP mice received a purified diet containing the PXR activator pregnenolone 16α-carbonitrile (PCN) or the ROS scavenger N-acetyl-L-cysteine (NAC). We assessed P-gp protein expression and transport activity, Aβ brain and plasma levels, capillary leakage, renal function and cognition to test the PCN or NAC effect in hAPP mice.

The test system of data set [4] is murine brain microvascular endothelial cells (MBMECs). Briefly: NMDAR modulators on brain endothelial cells (electrophysiology, Ca2+, TEER, migration). The class given is cell-based. Conditions: for NMDAR mediated current: whole cell recorded MBMECs, compared to control conditions. The source says: In neurodegenerative disorders, concentrations of extracellular neurotransmitter in the central nervous system (CNS) are out of balance. Glutamatergic dysregulation and extracellular glycine accumulation cause excitotoxicity and subsequent neuronal death. This process is largely mediated by N-methyl-D-aspartate receptor (NMDAR) activation. NMDARs are ionotropic receptors permeable for positive ions. In the CNS, they are composed by two obligatory NR1 subunits containing glycine binding sites and two NR2 subunits that are activated by glutamate. NR3 subunits which are less abundant in the CNS are activated by glycine. While neuronal NMDARs are well studied, their functional role on endothelial cells (ECs) is still to be investigated. ECs of the Blood Brain Barrier (BBB) are exposed to the extracellular milieu of the CNS and therefore to high concentrations of neurotransmitters. In this study, we investigated the effect of NMDAR modulators on murine brain microvascular endothelial cells (MBMECs).

The nature of data set [5]: Chemical stability in cell media supplemented with 10% FBS by UPLC. The class given is in vitro ADME. Conditions: for % of initial remained intact: UPLC, cell media supplemented with 10% FBS, 4 h incubation, fluorophore-labelled constructs. The source says: All constructs were stable in PBS.
The test system of a further data set is astrocytes. Kind of data set: Uptake in astrocytes cultured on the basolateral (brain) side. Conditions: rat astrocytes below bovine brain endothelial cells; fluorophore-labelled. The class given is cell-based.
For data set [6], the system named is primary mouse brain microvascular endothelial cells (pMBMECs). Briefly: Effector OT-I CD8+ T-cell interaction with antigen-pulsed pMBMECs under physiological flow. In kind it is cell-based. Conditions: SIINFEKL and MHC class I on WT pMBMECs. The source says:
Methods and results: We used primary mouse brain microvascular endothelial cells (pMBMECs) as an in vitro model for BBB. […] We next investigated, if naive CD8+ T cells can interact with pMBMECs under physiological flow. […] This prompted us to investigate how endothelial Ag-presentation contributes to the interaction of effector OT-I CD8+ T-cells with pMBMECs under physiological flow.

Substrate in data set [7]: NC1=NCCN1CC(=O)O
Kind of data set: [14C]cyclocreatine / [14C]creatine uptake by HEK293 cells. In kind it is cell-based. Conditions: other: HEK293 cells, 37 °C, saturable kinetics. Here is the method: as §1

The mark [8] stands for this setting: 12-month old mice treated for 3 weeks.

Turning to `NC(N)=NCCC(=O)O` [GPA, guanidinopropionic acid], the “inhibition of [14C]cyclocreatine uptake” value in data set [1] (HEK293 cells, inhibitor 10 mM, [14C]cyclocreatine 9 µM, 37 °C) is 96%. Further, the “suppression of [14C]cyclocreatine uptake” value in data set [2] stood at 91%.
For `C=C(C)[C@H]1CN[C@H](C(=O)O)[C@H]1CC(=O)O` [Kainate, kainic acid], the “production of nitric oxide (NO) in brain endothelial cells” value in data set [3] (fluorescent probes) was “increased”. The “viability or morphology of astroglial cells” value in data set [3] (rat primary astroglial cells) is reported as “unchanged”. Also, the “effect on brain endothelial cells (viability by impedance)” value in data set [3] (rat primary brain endothelial cells, concentration- and time-dependent) was “damaged”.
As for `CC(=O)N[C@@H](CS)C(=O)O` [NAC, N-acetyl-L-cysteine], in the data set with transgenic hAPP mice (setting [8]), the barrier leakage result was “reduced” and the renal function entry is given as “improved”.
For the molecule `CC(=O)[C@H]1[C@H](C#N)C[C@H]2[C@@H]3CC=C4C[C@@H](O)CC[C@]4(C)[C@H]3CC[C@@]21C` [PCN, pregnenolone 16α-carbonitrile], in the data set on transgenic hAPP mice (hAPP mice fed for 21 months), the Aβ brain levels result was “lowered”; the “P-gp protein expression and transport activity” value was “restored”; the cognition result is given as “improved”.
In the case of `NC1=NCCN1CC(=O)O` [[14C]cyclocreatine, cyclocreatine], the “inhibition of uptake by CRT-targeting siRNA” value in [1] (HEK293 cells) was 33%; in data set [2], 70%.
`CN(CC(=O)O)C(=N)N` [creatine]: in data set [1] (HEK293, read-out: inhibition of [14C]cyclocreatine uptake), the inhibition (as a rule, the percentage by which the read-out fell short of the control) at 10000 µM was found to be 97%. Moreover, the “inhibition of uptake by CRT-targeting siRNA” value in data set [1] (HEK293 cells) is recorded as 37%; in data set [2], 63%. Further, the “suppression of [14C]cyclocreatine uptake” value in data set [2] is listed as 91%.
Consider `CC1=NN(c2ccccc2)C(=O)C1` [edaravone], for which the “protection against the reduced cell viability and increased permeability caused by kainate” value in [3] (kainate-treated cells / BBB model) is “protected”.
As for `N[C@@H](CCC(=O)O)C(=O)O` [glutamate], the “transendothelial electrical resistance (TEER)” value in [4] (MBMECs) is on record as “No changes”. Also, in [4], the NMDAR mediated current entry is recorded as “did neither evoke any”.
Consider `NCC(=O)O` [glycine], for which, in data set [4] (MBMECs), the MBMEC migration entry was “impaired”, the “intracellular Ca2+ levels” value is on record as “increase” and the “transendothelial electrical resistance (TEER)” value is “reduced”. Moreover, the NMDAR mediated current entry in data set [4] is recorded as “bigger”.
Turning to `O=C(O)c1cccnc1C(=O)O` [quinolinic acid], the “transendothelial electrical resistance (TEER)” value in [4] (MBMECs) is listed as “No changes”. Also, the NMDAR mediated current entry in data set [4] was “did neither evoke any”.
For “NR2B9c: clinically relevant peptide drug entity (1 kDa) (KLSSIESDV; UniProt Q13224 1476-1484, looked up, fragment)”, the “% of initial remained intact” value in data set [5] is ~ 90%. In addition, the “uptake in astrocytes cultured on the basolateral (brain) side” value with astrocytes was “not”.
In the case of “SIINFEKL [cognate peptide antigen for OT-I CD8+ T cells]”, in data set [6], the T-cell crawling result is reported as “prohibited” and the T-cell migration rates result is given as “decreased”.
“Tat: 11-residue cationic peptide, tool to facilitate delivery of peptide drug entities into cells and across barriers”: in [5], the “% of initial remained intact” value is given as ~ 50%. The “integrity in cell media (in words)” value in data set [5] (cell media, conclusion statement) is on record as “extensive degradation”. Moreover, the “uptake in astrocytes cultured on the basolateral (brain) side” value in the data set on astrocytes is “observed”.

B1: Creatine transporter (CRT) (Homo sapiens) (protein)
chain: T1 sequence (P48029 1-635)
notes: endogenous in cells; host or cells: HEK293 cells
As to B1, in data set [7], the Michaelis-Menten constant (Km) (as a rule, the concentration of substrate that gives half-maximal velocity) is 188 µM and the Vmax came to 273 pmol/mg protein/min.

The values are drawn from paper PMC6737591, “Abstracts from the 22nd International Symposium on Signal Transduction at the Blood–Brain Barriers” (Fluids and Barriers of the CNS, 2019).
